The test system of this assay is microfilariae of Dirofilaria immitis. Nature of the assay: Dirofilaria immitis, Microfilaria (DiMF) In vitro Assay. The assay is classed as cell-based. The settings on record: 72 h, read-out: DiMF Minimum Effective Dose (MED), approximately 72 hours incubation, microfilariae assessed for survival or paralysis.

Consider `CC(C)C[C@H]1C(=O)O[C@H](Cc2ccc(Cn3ccnc3-c3ccccc3)cc2)C(=O)N(C)[C@@H](CC(C)C)C(=O)O[C@H](C)C(=O)N(C)[C@@H](CC(C)C)C(=O)O[C@H](Cc2ccc(Cn3ccnc3-c3ccccc3)cc2)C(=O)N(C)[C@@H](CC(C)C)C(=O)O[C@H](C)C(=O)N1C` [Example 6-11, (3S,6R,9S,12R,15S,18R,21S,24R)-3,9,15,21-tetraisobutyl-4,6,10,16,18,22-hexamethyl-12,24-bis(4-((2-phenyl-1H-imidazol-1-yl)methyl)benzyl)-1,7,13,19-tetraoxa-4,10,16,22-tetraazacyclotetracosan-2,5,8,11,14,17,20,23-octaone], for which the minimal effective concentration is 0.01 to 0.1 µM.
Under `CC(C)C[C@H]1C(=O)O[C@H](Cc2ccc(Cn3cc([N+](=O)[O-])cn3)cc2)C(=O)N(C)[C@@H](CC(C)C)C(=O)O[C@H](C)C(=O)N(C)[C@@H](CC(C)C)C(=O)O[C@H](Cc2ccccc2)C(=O)N(C)[C@@H](CC(C)C)C(=O)O[C@H](C)C(=O)N1C` [Example 2-29, (3S,6R,9S,12R,15S,18R,21S,24R)-6-benzyl-3,9,15,21-tetraisobutyl-4,10,12,16,22,24-hexamethyl-18-(4-((4-nitro-1H-pyrazol-1-yl)methyl)benzyl)-1,7,13,19-tetraoxa-4,10,16,22-tetraazacyclotetracosan-2,5,8,11,14,17,20,23-octaone] stands 0.001 to 0.01 µM.
As for `CC(C)C[C@H]1C(=O)O[C@H](Cc2ccc(Cn3ccc(C4CCC4)n3)cc2)C(=O)N(C)[C@@H](CC(C)C)C(=O)O[C@H](C)C(=O)N(C)[C@@H](CC(C)C)C(=O)O[C@H](Cc2ccc(Cn3ccc(C4CCC4)n3)cc2)C(=O)N(C)[C@@H](CC(C)C)C(=O)O[C@H](C)C(=O)N1C` [Example 1b-106, (3S,6R,9S,12R,15S,18R,21S,24R)-6,18-bis(4-((3-cyclobutyl-1H-pyrazol-1-yl)methyl)benzyl)-3,9,15,21-tetraisobutyl-4,10,12,16,22,24-hexamethyl-1,7,13,19-tetraoxa-4,10,16,22-tetraazacyclotetracosan-2,5,8,11,14,17,20,23-octaone], the minimal effective concentration is 0.01 to 0.1 µM.
Under `CC(C)C[C@H]1C(=O)O[C@H](Cc2ccc(Cn3ccc(Cl)cc3=O)cc2)C(=O)N(C)[C@@H](CC(C)C)C(=O)O[C@H](C)C(=O)N(C)[C@@H](CC(C)C)C(=O)O[C@H](Cc2ccc(Cn3ccc(Cl)cc3=O)cc2)C(=O)N(C)[C@@H](CC(C)C)C(=O)O[C@H](C)C(=O)N1C` [Example 9-21, (3S,6R,9S,12R,15S,18R,21S,24R)-6,18-bis(4-((4-chloro-2-oxopyridin-1 (2H)-yl)methyl)benzyl)-3,9,15,21-tetraisobutyl-4,10,12,16,22,24-hexamethyl-1,7,13,19-tetraoxa-4,10,16,22-tetraazacyclotetracosan-2,5,8,11,14,17,20,23-octaone] stands 0.001 to 0.01 µM; under `CC(C)C[C@H]1C(=O)O[C@H](Cc2ccc(Cn3nc(C4CC4)cc3C3CC3)cc2)C(=O)N(C)[C@@H](CC(C)C)C(=O)O[C@H](C)C(=O)N(C)[C@@H](CC(C)C)C(=O)O[C@H](Cc2ccc(Cn3nc(-c4ccco4)cc3CO)cc2)C(=O)N(C)[C@@H](CC(C)C)C(=O)O[C@H](C)C(=O)N1C` [Example 1a-6, (3S,6R,9S,12R,15S,18R,21S,24R)-6-(4-((3,5-dicyclopropyl-1H-pyrazol-1-yl)methyl)benzyl)-18-(4-((3-(furan-2-yl)-5-(hydroxymethyl)-1H-pyrazol-1-yl)methyl)benzyl)-3,9,15,21-tetraisobutyl-4,10,12,16,22,24-hexamethyl-1,7,13,19-tetraoxa-4,10,16,22-tetraazacyclotetracosan-2,5,8,11,14,17,20,23-octaone], 0.01 to 0.1 µM; under `CC(C)C[C@H]1C(=O)O[C@H](Cc2ccc(Cn3cc(-c4cnccn4)cn3)cc2)C(=O)N(C)[C@@H](CC(C)C)C(=O)O[C@H](C)C(=O)N(C)[C@@H](CC(C)C)C(=O)O[C@H](Cc2ccccc2)C(=O)N(C)[C@@H](CC(C)C)C(=O)O[C@H](C)C(=O)N1C` [Example 2-46, (3S,6R,9S,12R,15S,18R,21S,24R)-6-benzyl-3,9,15,21-tetraisobutyl-4,10,12,16,22,24-hexamethyl-18-(4-((4-(pyrazin-2-yl)-1H-pyrazol-1-yl)methyl)benzyl)-1,7,13,19-tetraoxa-4,10,16,22-tetraazacyclotetracosan-2,5,8,11,14,17,20,23-octaone], 0.001 to 0.01 µM.
Under `CC(C)C[C@H]1C(=O)O[C@H](Cc2ccc(Cn3ccc(C(F)(F)F)n3)cc2)C(=O)N(C)[C@@H](CC(C)C)C(=O)O[C@H](C)C(=O)N(C)[C@@H](CC(C)C)C(=O)O[C@H](Cc2ccccc2)C(=O)N(C)[C@@H](CC(C)C)C(=O)O[C@H](C)C(=O)N1C` [Example 2-58, (3S,6R,9S,12R,15S,18R,21S,24R)-6-benzyl-3,9,15,21-tetraisobutyl-4,10,12,16,22,24-hexamethyl-18-(4-((3-(trifluoromethyl)-1H-pyrazol-1-yl)methyl)benzyl)-1,7,13,19-tetraoxa-4,10,16,22-tetraazacyclotetracosan-2,5,8,11,14,17,20,23-octaone] stands 0.01 to 0.1 µM.
Under `CC(C)C[C@H]1C(=O)O[C@H](Cc2ccc(Cn3cc(C#CC4CC4)cn3)cc2)C(=O)N(C)[C@@H](CC(C)C)C(=O)O[C@H](C)C(=O)N(C)[C@@H](CC(C)C)C(=O)O[C@H](Cc2ccccc2)C(=O)N(C)[C@@H](CC(C)C)C(=O)O[C@H](C)C(=O)N1C` [Example 2-75, (3S,6R,9S,12R,15S,18R,21S,24R)-6-benzyl-18-(4-((4-(cyclopropylethynyl)-1H-pyrazol-1-yl)methyl)benzyl)-3,9,15,21-tetraisobutyl-4,10,12,16,22,24-hexamethyl-1,7,13,19-tetraoxa-4,10,16,22-tetraazacyclotetracosan-2,5,8,11,14,17,20,23-octaone] stands 0.001 to 0.01 µM; under `Cc1ccn(Cc2ccc(C[C@H]3OC(=O)[C@H](CC(C)C)N(C)C(=O)[C@@H](C)OC(=O)[C@H](CC(C)C)N(C)C(=O)[C@@H](Cc4ccc(Cn5ccc(C)cc5=O)cc4)OC(=O)[C@H](CC(C)C)N(C)C(=O)[C@@H](C)OC(=O)[C@H](CC(C)C)N(C)C3=O)cc2)c(=O)c1` [Example 9-27, (3S,6R,9S,12R,15S,18R,21S,24R)-3,9,15,21-tetraisobutyl-4,6,10,16,18,22-hexamethyl-12,24-bis(4-((4-methyl-2-oxopyridin-1 (2H)-yl)methyl)benzyl)-1,7,13,19-tetraoxa-4,10,16,22-tetraazacyclotetracosan-2,5,8,11,14,17,20,23-octaone], 0.01 to 0.1 µM.
Take `CC(C)C[C@H]1C(=O)O[C@H](Cc2ccc(CN3CCOc4ccccc43)cc2)C(=O)N(C)[C@@H](CC(C)C)C(=O)O[C@H](C)C(=O)N(C)[C@@H](CC(C)C)C(=O)O[C@H](Cc2ccccc2)C(=O)N(C)[C@@H](CC(C)C)C(=O)O[C@H](C)C(=O)N1C` [Example 10-16, (3S,6R,9S,12R,15S,18R,21S,24R)-6-benzyl-18-(4-((2,3-dihydro-4H-benzo[b][1,4]oxazin-4-yl)methyl)benzyl)-3,9,15,21-tetraisobutyl-4,10,12,16,22,24-hexamethyl-1,7,13,19-tetraoxa-4,10,16,22-tetraazacyclotetracosan-2,5,8,11,14,17,20,23-octaone]: the minimal effective concentration lay within 0.01 to 0.1 µM.
The same measure for `CC(C)C[C@H]1C(=O)O[C@H](Cc2ccc(Cn3nc(CO)cc3CO)cc2)C(=O)N(C)[C@@H](CC(C)C)C(=O)O[C@H](C)C(=O)N(C)[C@@H](CC(C)C)C(=O)O[C@H](Cc2ccccc2)C(=O)N(C)[C@@H](CC(C)C)C(=O)O[C@H](C)C(=O)N1C` [Example 2-42, (3S,6R,9S,12R,15S,18R,21S,24R)-6-benzyl-18-(4-((3,5-bis(hydroxymethyl)-1H-pyrazol-1-yl)methyl)benzyl)-3,9,15,21-tetraisobutyl-4,10,12,16,22,24-hexamethyl-1,7,13,19-tetraoxa-4,10,16,22-tetraazacyclotetracosan-2,5,8,11,14,17,20,23-octaone]: 0.01 to 0.1 µM; for `CCCc1cnn(Cc2ccc(C[C@H]3OC(=O)[C@H](CC(C)C)N(C)C(=O)[C@@H](C)OC(=O)[C@H](CC(C)C)N(C)C(=O)[C@@H](Cc4ccccc4)OC(=O)[C@H](CC(C)C)N(C)C(=O)[C@@H](C)OC(=O)[C@H](CC(C)C)N(C)C3=O)cc2)c1` [Example 2-26, (3S,6R,9S,12R,15S,18R,21S,24R)-6-benzyl-3,9,15,21-tetraisobutyl-4,10,12,16,22,24-hexamethyl-18-(4-((4-propyl-1H-pyrazol-1-yl)methyl)benzyl)-1,7,13,19-tetraoxa-4,10,16,22-tetraazacyclotetracosan-2,5,8,11,14,17,20,23-octaone]: 0.01 to 0.1 µM; for `CC(C)C[C@H]1C(=O)O[C@H](Cc2ccc(Cn3nc(C(C)C)cc3C(C)C)cc2)C(=O)N(C)[C@@H](CC(C)C)C(=O)O[C@H](C)C(=O)N(C)[C@@H](CC(C)C)C(=O)O[C@H](Cc2ccccc2)C(=O)N(C)[C@@H](CC(C)C)C(=O)O[C@H](C)C(=O)N1C` [Example 2-54, (3S,6R,9S,12R,15S,18R,21S,24R)-6-benzyl-18-(4-((3,5-diisopropyl-1H-pyrazol-1-yl)methyl)benzyl)-3,9,15,21-tetraisobutyl-4,10,12,16,22,24-hexamethyl-1,7,13,19-tetraoxa-4,10,16,22-tetraazacyclotetracosan-2,5,8,11,14,17,20,23-octaone]: 0.01 to 0.1 µM.
Consider `Cc1cn(Cc2ccc(C[C@H]3OC(=O)[C@H](CC(C)C)N(C)C(=O)[C@@H](C)OC(=O)[C@H](CC(C)C)N(C)C(=O)[C@@H](Cc4ccc(Cn5cc(C)nc5C)cc4)OC(=O)[C@H](CC(C)C)N(C)C(=O)[C@@H](C)OC(=O)[C@H](CC(C)C)N(C)C3=O)cc2)c(C)n1` [Example 6-5, (3S,6R,9S,12R,15S,18R,21S,24R)-6,18-bis(4-((2,4-dimethyl-1H-imidazol-1-yl)methyl)benzyl)-3,9,15,21-tetraisobutyl-4,10,12,16,22,24-hexamethyl-1,7,13,19-tetraoxa-4,10,16,22-tetraazacyclotetracosan-2,5,8,11,14,17,20,23-octaone], for which the minimal effective concentration lay in the range of 0.01 to 0.1 µM.

Values taken from patent publication US11331369B2, “Endoparasitic depsipeptides” (Zoetis Services LLC, priority 2017, dated 2022).
